Assay results from ChEMBL document CHEMBL1201862, “PubChem BioAssay data set” (2004).
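Cells were grown in 96-well plates and exposed to each compound for 48 hours at five concentrations; endpoints were interpolated linearly between bracketing concentrations, or set to the highest concentration if not reached. At the GI50, growth is halved.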 Calls of active or inactive are those of the source. Rule as the data show it: active = GI50 up to about 1.1 µM and inactive = higher.

Key:
Assay in all cases: inhibition of tumour cell growth, NCI panel, 48 h
[1] = tested on: HCT-116
[2] = tested on: NCI-H460
[3] = tested on: SW-620
[4] = tested on: OVCAR-3
[5] = tested on: RXF 393
[6] = tested on: NCI-H522
[7] = tested on: HT-29
[8] = tested on: A549
[9] = tested on: KM-20L2
[10] = tested on: 786-0
[11] = tested on: SK-MEL-2
[12] = tested on: HOP-62
[13] = tested on: KM12
[14] = tested on: K562
[15] = tested on: SK-OV-3
[16] = tested on: HL-60
[17] = tested on: TK-10
[18] = tested on: RPMI-8226
[19] = tested on: NCI/ADR-RES
[20] = tested on: PC-3

Measured: GI50

CCC(C)(C)NC1=C(NC(C)=O)C(=O)c2ccccc2C1=O
inactive: [1] 17.7 µM | [2] 39.5 µM | [3] 35.1 µM | [4] 34.8 µM | [5] 25 µM | [6] 10.2 µM | [7] > 75 µM | [8] > 75 µM | [9] > 75 µM | [10] > 75 µM | [11] 21 µM | [12] > 75 µM | [13] 57.3 µM | [14] 20.8 µM | [15] > 75 µM | [16] 16.7 µM | [17] > 75 µM

CCOC(=O)CCn1[nH]c(=O)c(Cl)c(Cl)c1=O
inactive: [1] > 100 µM | [2] > 100 µM | [3] > 100 µM | [4] > 100 µM | [5] > 100 µM | [6] > 100 µM | [7] > 100 µM | [8] > 100 µM | [9] > 100 µM | [10] > 100 µM | [11] > 100 µM | [12] > 100 µM | [14] > 100 µM | [15] > 100 µM | [16] > 100 µM | [17] > 100 µM

N#Cc1cnsc1
inactive: [1] > 100 µM | [2] > 100 µM | [3] > 100 µM | [4] > 100 µM | [5] > 100 µM | [7] > 100 µM | [8] > 100 µM | [9] > 100 µM | [10] > 100 µM | [11] > 100 µM | [12] > 100 µM | [13] > 100 µM | [14] > 100 µM | [15] > 100 µM | [16] > 100 µM | [18] > 100 µM | [17] > 100 µM

C[C@]12CCC(=O)C=C1CC[C@@H]1[C@@H]2[C@@H](O)C[C@@]2(C)[C@H]1CC[C@]2(O)C(=O)COC(=O)COCC(=O)O
inactive: [1] > 100 µM | [2] > 100 µM | [3] > 100 µM | [4] > 100 µM | [6] > 100 µM | [7] > 100 µM | [8] > 100 µM | [9] > 100 µM | [10] > 100 µM | [11] > 100 µM | [12] > 100 µM | [13] > 100 µM | [14] > 100 µM | [15] > 100 µM | [16] > 100 µM | [18] > 100 µM | [17] > 100 µM

CC1CCC(C(C)C)C(O[C@@H]2OC(=O)C[C@@H]2Sc2ccccc2)C1 (stereo partly specified)
inactive: [1] 25.9 µM | [2] 24.5 µM | [3] 18.2 µM | [4] 14.5 µM | [5] 13.4 µM | [7] 17.5 µM | [8] 24.9 µM | [9] > 10 µM | [10] 21 µM | [11] 17.5 µM | [12] 32.1 µM | [13] 20.3 µM | [14] 19.1 µM | [15] 49.8 µM | [16] 18.2 µM | [18] 13.3 µM | [17] 53.3 µM

O=C(C/C(CCC(=O)N(Cc1ccccc1)Cc1ccccc1)=N/Nc1ccc([N+](=O)[O-])cc1[N+](=O)[O-])c1ccccc1
inactive: [1] > 100 µM | [2] 92.9 µM | [3] 45.2 µM | [4] > 100 µM | [6] > 100 µM | [7] 54.1 µM | [8] 86.1 µM | [9] 33.3 µM | [10] > 100 µM | [11] > 100 µM | [12] 70.8 µM | [13] 77.1 µM | [14] 28.1 µM | [15] > 100 µM | [16] 41.2 µM | [18] 81.1 µM | [17] > 100 µM

Cc1c2ccncc2c(C)c2c1[nH]c1ccc(O)c(OCC(F)(F)F)c12
inactive: [1] 2.39 µM | [2] 2.18 µM | [3] 3.55 µM | [4] 7.8 µM | [6] 4.5 µM | [7] > 7.5 µM | [8] 3.9 µM | [9] 12.2 µM | [10] 2.01 µM | [11] 12 µM | [12] 10.8 µM | [14] 3.16 µM | [15] 10.2 µM | [16] 2.9 µM | [18] 2.1 µM | [17] 13.6 µM

CC(C)=CCC[C@](C)(O)[C@H]1CC[C@]2(C)[C@@H]1[C@H](O)C[C@@H]1[C@@]3(C)CC[C@H](O[C@@H]4O[C@H](CO)[C@@H](O)[C@H](O)[C@H]4O)C(C)(C)[C@@H]3CC[C@]12C [GINSENOSIDE RH2]
inactive: [19] 25.1 µM | [1] 26.2 µM | [2] 16.6 µM | [3] 19.5 µM | [4] 17.9 µM | [5] 17 µM | [6] 17.2 µM | [7] 15.5 µM | [20] 17.6 µM | [8] 18.8 µM | [10] 20.2 µM | [11] 15.9 µM | [12] 32.6 µM | [13] 17.6 µM | [14] 19.8 µM | [15] 18.5 µM | [16] 21 µM | [18] 19.1 µM | [17] 21.4 µM
